Test results published in article PMC6757289, “Design and Characterization of SGK3-PROTAC1, an Isoform Specific SGK3 Kinase PROTAC Degrader” (ACS Chemical Biology, 2019).

Target: T1, SGK3 (Homo sapiens, UniProt Q96BR1)
T1 sequence (Q96BR1 1-496): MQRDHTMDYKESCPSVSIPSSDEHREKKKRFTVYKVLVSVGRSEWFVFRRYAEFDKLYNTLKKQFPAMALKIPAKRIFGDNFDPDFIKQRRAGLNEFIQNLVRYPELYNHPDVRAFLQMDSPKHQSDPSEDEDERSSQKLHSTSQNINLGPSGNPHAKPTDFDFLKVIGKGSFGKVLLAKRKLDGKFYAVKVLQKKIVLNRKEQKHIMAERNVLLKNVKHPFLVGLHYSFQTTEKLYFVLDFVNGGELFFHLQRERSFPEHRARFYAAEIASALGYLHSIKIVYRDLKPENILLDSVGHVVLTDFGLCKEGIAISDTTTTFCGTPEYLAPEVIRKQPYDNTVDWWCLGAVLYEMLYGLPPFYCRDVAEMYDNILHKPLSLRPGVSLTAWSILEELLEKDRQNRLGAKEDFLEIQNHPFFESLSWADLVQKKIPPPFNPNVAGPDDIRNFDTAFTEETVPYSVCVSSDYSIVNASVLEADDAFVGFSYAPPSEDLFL
Assay: SGK3 degradation in HEK293 cells, immunoblot
Format: cell-based
Set-up: reduced endogenous SGK isoform or S6K1 expression when administered to HEK293 cells for 48 h; endogenous in cells; host or cells: HEK293
Conditions: HEK293, 8 h; cisSGK3-PROTAC1 up to 3 μM, SGK3-PROTAC1 0.1 μM
Method: Figure 1 Design and cellular activity of first generation SGK3 PROTACs. (A) Structure of compound 14H, previously published by Sanofi as an inhibitor of SGK3. (B) Starting material for SGK PROTACs. […] (C) Structures of first generation SGK PROTACs. SGK and E3 ligase targeting motifs were joined by a 3xPEG linker to produce the PROTACs. (D) HEK293 cells were treated for 48 h with increasing concentrations of each PROTAC compound from 0.1 nM to 10 μM. Cell lysates were subjected to immunoblot analysis with the indicated antibodies, and SGK3 protein levels were quantified in Image Studio Lite software (Licor).
Figure 2 Design and cellular evaluation of second and third generation SGK PROTACs. (A) Chemical structure of compounds DAT5–12, expanding upon DAT1. (B) Chemical structure of cisSGK3-PROTAC1. (C) HEK293 cells were treated for 48 h with increasing concentrations of each PROTAC compound from 1 nM to 10 μM. Cell lysates were subjected to immunoblot analysis with the indicated antibodies, and SGK3 protein levels quantified in Image Studio Lite software. (D) HEK293 cells were treated for 48 h with increasing concentrations of each PROTAC compound from 1 nM to 10 μM. Cell lysates were subjected to immunoblot analysis with the indicated antibodies, and SGK3 and S6K1 protein levels were quantified in Image Studio Lite software. TEXT PRINTED IN THE PICTURE: (C) DAT1: % SGK3: 100 (48h Treatment (μM): 0); % SGK3: 94 (48h Treatment (μM): 0.001); % SGK3: 82 (48h Treatment (μM): 0.01); % SGK3: 70 (48h Treatment (μM): 0.1); % SGK3: 52 (48h Treatment (μM): 1); % SGK3: 31 (48h Treatment (μM): 10) | (C) DAT5: % SGK3: 100 (48h Treatment (μM): 0); % SGK3: 104 (48h Treatment (μM): 0.001); % SGK3: 82 (48h Treatment (μM): 0.01); % SGK3: 92 (48h Treatment (μM): 0.1); % SGK3: 73 (48h Treatment (μM): 1); % SGK3: 36 (48h Treatment (μM): 10) | (C) DAT6: % SGK3: 100 (48h Treatment (μM): 0); % SGK3: 105 (48h Treatment (μM): 0.001); % SGK3: 90 (48h Treatment (μM): 0.01); % SGK3: 71 (48h Treatment (μM): 0.1); % SGK3: 44 (48h Treatment (μM): 1); % SGK3: 20 (48h Treatment (μM): 10) | (C) DAT7: % SGK3: 100 (48h Treatment (μM): 0); % SGK3: 77 (48h Treatment (μM): 0.001); % SGK3: 80 (48h Treatment (μM): 0.01); % SGK3: 95 (48h Treatment (μM): 0.1); % SGK3: 37 (48h Treatment (μM): 1); % SGK3: 29 (48h Treatment (μM): 10) | (D) DAT8: % SGK3: 100 (48h Treatment (μM): 0); % SGK3: 97 (48h Treatment (μM): 0.001); % SGK3: 107 (48h Treatment (μM): 0.01); % SGK3: 34 (48h Treatment (μM): 0.1); % SGK3: 24 (48h Treatment (μM): 1); % SGK3: 19 (48h Treatment (μM): 10) | (D) DAT9: % SGK3: 100 (48h Treatment (μM): 0); % SGK3: 105 (48h Treatment (μM): 0.001); % SGK3: 71 (48h Treatment (μM): 0.01); % SGK3: 40 (48h Treatment (μM): 0.1); % SGK3: 11 (48h Treatment (μM): 1); % SGK3: 12 (48h Treatment (μM): 10) | (D) DAT10: % SGK3: 100 (48h Treatment (μM): 0); % SGK3: 100 (48h Treatment (μM): 0.001); % SGK3: 76 (48h Treatment (μM): 0.01); % SGK3: 54 (48h Treatment (μM): 0.1); % SGK3: 11 (48h Treatment (μM): 1); % SGK3: 9 (48h Treatment (μM): 10) | (D) DAT11: % SGK3: 100 (48h Treatment (μM): 0); % SGK3: 96 (48h Treatment (μM): 0.001); % SGK3: 97 (48h Treatment (μM): 0.01); % SGK3: 41 (48h Treatment (μM): 0.1); % SGK3: 32 (48h Treatment (μM): 1); % SGK3: 29 (48h Treatment (μM): 10) | (D) DAT12: % SGK3: 100 (48h Treatment (μM): 0); % SGK3: 106 (48h Treatment (μM): 0.001); % SGK3: 84 (48h Treatment (μM): 0.01); % SGK3: 79 (48h Treatment (μM): 0.1); % SGK3: 32 (48h Treatment (μM): 1); % SGK3: 29 (48h Treatment (μM): 10) DOUBTS OF THE COPYIST ABOUT THIS PICTURE: All % SGK3 values are quantification numbers printed under immunoblot lanes; each was assigned to a concentration by lane position / DAT9 and DAT10, % SGK3: the first numbers are printed run together ('100105', '100100') and were split as 100 | 105 and 100 | 100
Figure 3 Characterization of cellular activities of SGK3-PROTAC1 and cisSGK3-PROTAC1. […]

## Cc1ccc(F)c(S(=O)(=O)Nc2ccc(-c3nc(OC[C@H]4CN(CCCCCCOCCOCCOCC(=O)N[C@H](C(=O)N5C[C@@H](O)C[C@H]5C(=O)NCc5ccc(-c6scnc6C)cc5)C(C)(C)C)CCO4)c4cn[nH]c4n3)cc2)c1 [cisSGK3-PROTAC1]
  degradation of SGK3: failed to induce degradation of SGK3
